“Also recorded” adds a separate entry of the source.
Tests used:
Assay type in all cases: in vivo, human
[1] = tested on: subjects who met the Rome Criteria for IBS; assay: VAS abdominal pain score (20-point Visual Analogue scale) in IBS study; settings: for Regression analysis: dependence of VAS score on drug dosage: larger doses; for p-value of drop in mean VAS pain scores: oral
Source text: (§1) This is a longitudinal single blinded, randomized placebo controlled study in which patients act as their own controls. Subjects were volunteers who met the Rome Criteria for IBS and without other active bowel disease (i.e. GERD, colon cancer). Both adult men and women participated, ranging in age from 23 to 75 years old, with greater number of women by a ratio of 2.5:1. Subjects responded to a Bowel Symptom Questionnaire (B. Naliboff, UCLA) as well as a Brief Mood Survey (D. Burns, Stanford). […] In addition, data was collected during a washout period of one week without any study drug.
(§2) A titration period of three to four weeks is being used to stabilize each patient on an efficacious dose of medication. […] During each week of the titration period, the cocktail was modified to allow a gradual increase or decrease in dose. Results were collected weekly by questionnaires.
(§3) Benefit in treating chronic IBS using nerve-acting agents was quantified by a decrease in mean values of abdominal pain with a 20-point Visual Analogue scale and a decrease in bowel symptoms (bloating, etc.) using a 20-point scale. Mood was also followed by a Brief Mood Survey, which rates Depression, Anxiety, Panic, Anger and Suicidal Urge (88 points maximum total).

[2] = tested on: subjects who met the Rome Criteria for IBS; assay: Bloating score (20-point scale, Bowel Symptom Questionnaire) in IBS study; settings: for Regression analysis: dependence of bloating score on drug dosage: larger doses
Source text: as §1, §2, §3

[3] = tested on: subjects who met the Rome Criteria for IBS; assay: IBS study, symptom scores overall (VAS pain, bloating, mood); settings: for Reduction of symptoms overall (H0 no reduction vs H1 some reduction) / Drug effect versus placebo effect, overall: result in words
Source text: as §1, §2, §3

[4] = tested on: subjects who met the Rome Criteria for IBS; assay: Side effects reported in IBS study; settings: 25 mg qhs; resolved after discontinuation
Source text: This is a longitudinal single blinded, randomized placebo controlled study in which patients act as their own controls. Subjects were volunteers who met the Rome Criteria for IBS and without other active bowel disease (i.e. GERD, colon cancer). Both adult men and women participated, ranging in age from 23 to 75 years old, with greater number of women by a ratio of 2.5:1. Subjects responded to a Bowel Symptom Questionnaire (B. Naliboff, UCLA) as well as a Brief Mood Survey (D. Burns, Stanford). Baseline questionnaire results were taken just prior to any drug treatment as well as shortly after. In addition, data was collected during a washout period of one week without any study drug. Drugs studied included intravenous lidocaine and a trial of the oral mexiletine, topiramate, gabapentin or placebo.
as §2

[5] = tested on: subjects who met the Rome Criteria for IBS; assay: Brief Mood Survey in IBS study; settings: for Regression analysis: dependence of mood score on drug dosage: larger doses
Source text: as §1, §3

[6] = intravenous, 22 subjects, 20 point scale

| SMILES | VAS: drug effect versus placebo effect ([1]; result in words) | Effect on decreasing bloating ([2]; 60 mg) | Bloating: drug effect versus placebo effect ([2]; result in words) | Regression analysis: dependence of any score on drug dosage ([3]; larger doses) | Reduction of symptoms overall (H0 no reduction vs H1 some reduction) [3] | Side effects reported: fatigue, number of subjects [4] | Regression analysis: dependence of VAS score on drug dosage [1] | Results in decreasing bloating ([2]; all dosages, 300 mg, 450 mg & 900 mg) | Regression analysis: dependence of bloating score on drug dosage [2] | Regression analysis: dependence of mood score on drug dosage [5] | p-value of drop in mean VAS pain scores ([1]; 300 mg) | p-value of drop in mean VAS pain scores ([1]; 600 mg) | Drug effect versus placebo effect, overall [3] | VAS Pain scores, mean reduction [1, 6] | Reduction of VAS (H0 no reduction vs H1 some reduction) ([1]; result in words) | Bloating, mean reduction [2, 6] | Reduction of bloating (H0 no reduction vs H1 some reduction) ([2]; result in words) | Relief of symptoms of abdominal pain, bloating and distension in IBS ([3]; intravenous) | Reduction of symptoms overall (H0 no reduction vs H1 some reduction) ([3]; listed as Lidocaine) | Effect on mood (H0 no reduction vs H1 some reduction) ([5]; result in words) |
| --- | --- | --- | --- | --- | --- | --- | --- | --- | --- | --- | --- | --- | --- | --- | --- | --- | --- | --- | --- | --- |
| CC1(C)O[C@@H]2[C@@H](CO[C@@]3(COS(N)(=O)=O)OC(C)(C)O[C@@H]23)O1 [topiramate] | different from placebo for VAS and bloating at doses 50 mg and higher | borderline effect | different from placebo for VAS and bloating at doses 50 mg and higher | do not significantly reduce any score in a predictable manner | least effect of all drugs; also recorded: barely become significant at doses of 50 mg and higher | Two | – | – | – | – | – | – | – | – | – | – | – | – | – | – |
| Cc1cccc(C)c1OCC(C)N (centres unmarked) [mexiletine] | different from placebo at all levels | – | different from placebo at all levels | – | significant at all dosages | – | some effect | significant results in decreasing bloating | some effect | not very important for mood | – | – | – | – | – | – | – | – | – | – |
| NCC1(CC(=O)O)CCCCC1 [gabapentin] | – | – | – | – | become more pronounced as the dosage is increased | – | some effect | – | some effect | not very important for mood | 0.06 | 0.04 | different from placebo at doses 600 mg and higher | – | – | – | – | – | – | – |
| CCN(CC)CC(=O)Nc1c(C)cccc1C [lidocaine] | – | – | – | – | All patients had a significant drop in their scores | – | – | – | – | – | – | – | much stronger effect than placebo | 4.80 | highly significant | 6.8 | highly significant | very effective | most influential drug of all | highly significant |

Reference: patent publication US7750046B2, “Treatment of symptoms associated with irritable bowel syndrome” (The Board of Trustees of the Leland Stanford Jr. University, priority 2001, dated 2010)
